Measurements published in PMC6934184, “Selective DNA-PKcs inhibition extends the therapeutic index of localized radiotherapy and chemotherapy” (The Journal of Clinical Investigation, 2019).

Target: T1, ITK (Homo sapiens, UniProt Q08881)
T1 construct: purchased Thermo Fisher Scientific (Life Technologies) SelectScreen
Experiment: SelectScreen Z'LYTE
Format: biochemical
Outline: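 Percent values come from Thermo SelectScreen profiling of NU5455, combining activity and binding assays. CSF1R was run in Z'LYTE format at Km app ATP, and CAMK1 in Adapta format with ATP listed at 10.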

T1 sequence (Q08881 whole entry): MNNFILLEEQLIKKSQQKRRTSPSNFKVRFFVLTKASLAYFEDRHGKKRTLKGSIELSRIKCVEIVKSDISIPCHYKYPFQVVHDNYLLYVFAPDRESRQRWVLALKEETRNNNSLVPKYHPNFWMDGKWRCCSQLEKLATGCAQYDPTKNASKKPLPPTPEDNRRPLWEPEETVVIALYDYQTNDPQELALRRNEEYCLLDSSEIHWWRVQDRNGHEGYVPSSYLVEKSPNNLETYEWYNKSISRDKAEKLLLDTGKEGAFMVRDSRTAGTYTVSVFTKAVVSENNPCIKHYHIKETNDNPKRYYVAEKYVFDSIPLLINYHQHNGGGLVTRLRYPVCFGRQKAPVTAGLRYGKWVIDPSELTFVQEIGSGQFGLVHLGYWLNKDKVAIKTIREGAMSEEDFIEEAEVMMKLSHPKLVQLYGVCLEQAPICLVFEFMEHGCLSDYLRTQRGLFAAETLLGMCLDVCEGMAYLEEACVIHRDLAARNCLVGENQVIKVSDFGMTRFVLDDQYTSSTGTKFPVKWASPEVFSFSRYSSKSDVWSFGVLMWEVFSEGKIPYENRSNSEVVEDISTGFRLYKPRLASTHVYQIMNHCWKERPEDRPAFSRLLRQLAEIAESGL

CN(C(=O)CN1CCOCC1)c1ccc2sc3c(-c4cccc5c(=O)cc(N6CC7CCC(C6)O7)oc45)cccc3c2c1 [NU5455]
inhibition at 1 µM: 5.5%
